One assay has as its system L-DTP (EPI) cells. The assay can be described thus: CCK8 cell survival and CI value (Calcusyn) in drug-tolerant L-DTP (EPI) cells. Format: cell-based. To be noted: L-DTP (EPI) cells produced after continuous EPI for 9 days. From the text:
(§1) Finally, Calcusyn software was used for calculating a CI value in L-DTP cells.

The next assay deals with PRDX5. Description: PRDX5 immunohistochemistry of prostate tissue slices, C-MYC-over-expressed prostate cancer mouse model. Type of assay: in vivo, mice. To be noted: 30 d after drug tolerance relapse, immunohistochemical positive cells. From the text:
A C-MYC (Hi-Myc)-over-expressed spontaneous prostate cancer mouse model was constructed, and at 4 months, the mice developed mPIN/Cancer transition. […] Then, the necks of some mice were severed, and the prostate cancers of the mice were taken, photographed and weighed. […] Then, the necks of the mice were severed, and the prostate cancers of the mice were taken, photographed, weighed and subjected to experiments including immunohistochemistry.

A further assay concerns AR. Description: AR immunohistochemistry of prostate tissue slices, C-MYC-over-expressed prostate cancer mouse model. Format: in vivo, mice. Conditions: 30 d after drug tolerance relapse, immunohistochemical positive cells. From the text:
Then, the necks of some mice were severed, and the prostate cancers of the mice were taken, photographed and weighed. […] Then, the necks of the mice were severed, and the prostate cancers of the mice were taken, photographed, weighed and subjected to experiments including immunohistochemistry.

The test system of the next assay is L-DTP (Enza) cells. The assay can be described thus: CCK8 cell survival and CI value (Calcusyn) in drug-tolerant L-DTP (Enza) cells. Conditions: L-DTP (Enza) cells produced after continuous Enza for 9 days. Format: cell-based.
Excerpt: as §1

Assay [1] concerns C-MYC-over-expressed prostate cancer mouse model. Description: C-MYC (Hi-Myc)-over-expressed spontaneous prostate cancer mouse model, prostate weight and HE staining. Format: in vivo, mice.
Procedure: A C-MYC (Hi-Myc)-over-expressed spontaneous prostate cancer mouse model was constructed, and at 4 months, the mice developed mPIN/Cancer transition. At the moment, the mice were randomly divided into an NC control group (intragastrical administration with solvents) and an Enza administration group. Then, intragastrical administration was performed every three days, and Enza administration was performed at 10 mg/Kg for a total of 30 days. Then, the necks of some mice were severed, and the prostate cancers of the mice were taken, photographed and weighed. […] Then, mice (mice aged 6 months) were randomly divided into: an NC control group (intragastrical administration with solvents all the time), an Enza single-drug group 1, an Enza single-drug group 2, a Stac single-drug group 1, a Stac single-drug group 2 and an Enza and Stac combination group, the corresponding administration treatment was performed, and all mice were intragastrically administered once every three days. The dosage of Enza in the Enza single-drug group 1 was kept at 10 mg/Kg each time, the dosage of Enza in the Enza single-drug group 2 was kept at 90 mg/Kg each time, the dosage of Stac in the Stac single-drug group 1 was kept at 80 mg/Kg each time, the dosage of Stac in the Stac single-drug group 2 was kept at 90 mg/Kg each time, the dosages of Enza and Stac in the Enza and Stac combination group were kept at 10 mg/Kg and 80 mg/Kg each time, and the administration was performed for a total of 30 days. Then, the necks of the mice were severed, and the prostate cancers of the mice were taken, photographed, weighed and subjected to experiments including immunohistochemistry.
In the next assay the test system is LNCaP cells. The assay can be described thus: Production of DTP/DTEP cells from LNCaP cells by EPI and Enza, cell counting. Conditions: 1×10^6 LNCaP cells seeded, one value given for EPI and Enza; for number of LNCaP-DTP cells as percentage of the initial seed cells: 9 days drug treatment; for number of LNCaP-DTEP cells as percentage of the initial seed cells: 33 days drug treatment. Type of assay: cell-based. From the text: In the period, for replacement, a fresh drug-containing medium was used every three days for culture, some cells (DTP cells) were collected for subsequent experiments after 9 days, and the remaining cells continued to be treated with drugs. In the period, for replacement, a fresh drug-containing medium was used every three days for culture, and DTEP cells were collected after 33 days for subsequent experiments. After the DTP and DTEP cells were produced, the cells were digested and counted to calculate the percentage of the cells in 1×10^6 cells. The collected NC, DTP and DTEP cells were used for subsequent Western Blot experiments: the three groups of cells were subjected to cell lysis, protein extraction and quantification, SDS-PAGE gel electrophoresis, membrane transfer, blocking, primary antibody incubation, secondary antibody incubation and development, then, the expression changes of AR-FL and its related target proteins and AR-Vs and its related target proteins were observed, and the expression changes of cell cycle-related proteins were observed. Flow cytometry: dead cells were stained by a PI-stained cycle kit, and cell cycle changes were determined by a flow cytometry.

Molecules are shown by their SMILES.

Take `OC[C@H]1O[C@H](OC[C@H]2O[C@H](OC[C@H]3O[C@H](O[C@]4(CO)O[C@H](CO)[C@@H](O)[C@@H]4O)[C@H](O)[C@@H](O)[C@@H]3O)[C@H](O)[C@@H](O)[C@H]2O)[C@H](O)[C@@H](O)[C@H]1O` [Stac, Stachyose]: the inhibition rate is recorded as 67.48% in the assay with L-DTP (EPI) cells and 62.47% in the assay on L-DTP (Enza) cells. Further, the figures for the PRDX5 expression/% in the assay with PRDX5 (Stac 80 mg/Kg) and in the assay with PRDX5 (Stac 90 mg/Kg) were 68.2% and 60.9%, respectively. For the same compound, the AR expression/% with AR (Stac 80 mg/Kg) amounted to 61.5%; with AR (Stac 90 mg/Kg), 57.4%. In addition, the “Average of prostate weights of mice” value came to 50.86 mg in assay [1] (Stac 80 mg/Kg, 30 d of administration after drug tolerance relapse, intragastric every three days) and 47.50 mg in assay [1] (Stac 90 mg/Kg, 30 d of administration after drug tolerance relapse, intragastric every three days). Besides, the “treatment effect of single use after drug tolerance (prostate weight)” value in assay [1] (single use of Stac compared with single use of Enza, after drug tolerance relapse) is on record as “better than that of the single use of Enza”.
In the case of `CNC(=O)c1ccc(N2C(=S)N(c3ccc(C#N)c(C(F)(F)F)c3)C(=O)C2(C)C)cc1F` [Enza, Enzalutamide], the values for the PRDX5 expression/% in the assay with PRDX5 (Enza 10 mg/Kg) and with PRDX5 (Enza 90 mg/Kg) were 78.4% and 80.0%, respectively. In addition, the “number of LNCaP-DTP cells as percentage of the initial seed cells” value with LNCaP cells was 103.11%. Besides, in the assay with LNCaP cells, the “number of LNCaP-DTEP cells as percentage of the initial seed cells” value was 110.92%. For the same compound, the inhibition rate result in the assay with L-DTP (Enza) cells is given as “no obvious inhibiting effect”. The “prostate weight compared with NC control group” value in assay [1] (Enza 10 mg/Kg intragastric every three days, 30 days, from 4 months of age) is “reduced by half”. Also, the “Average of prostate weights of mice” value was 54.42 mg in assay [1] (Enza 10 mg/Kg, 30 d of administration after drug tolerance relapse, intragastric every three days); 53.83 mg in assay [1] (Enza 90 mg/Kg, 30 d of administration after drug tolerance relapse, intragastric every three days); 77.1 mg in assay [1] (continued Enza administration, after 90 days, drug tolerance relapse (NC control 98.2 mg)); 43.9 mg in assay [1] (continuous Enza 10 mg/Kg intragastric every three days, 30 days (NC control 88.7 mg)).
For `CC(C)(c1ccc(OCC(O)CO)cc1)c1ccc(OCC(O)CCl)cc1` (stereo not drawn) [EPI, EPI-001], in the assay on L-DTP (EPI) cells, the inhibition rate entry was “no obvious inhibiting effect”. Moreover, in the assay with LNCaP cells, the “number of LNCaP-DTP cells as percentage of the initial seed cells” value is on record as 103.11% and the “number of LNCaP-DTEP cells as percentage of the initial seed cells” value came out at 110.92%.

Source of the values: patent US12685742B2, “Application of stachyose in preparation of drug for treating castration-resistant prostate cancer” (priority 2021, dated 2026).
